The target of this test is T1, Zinc finger protein GLI1 (Homo sapiens, UniProt P08151).
T1 sequence (P08151 whole entry): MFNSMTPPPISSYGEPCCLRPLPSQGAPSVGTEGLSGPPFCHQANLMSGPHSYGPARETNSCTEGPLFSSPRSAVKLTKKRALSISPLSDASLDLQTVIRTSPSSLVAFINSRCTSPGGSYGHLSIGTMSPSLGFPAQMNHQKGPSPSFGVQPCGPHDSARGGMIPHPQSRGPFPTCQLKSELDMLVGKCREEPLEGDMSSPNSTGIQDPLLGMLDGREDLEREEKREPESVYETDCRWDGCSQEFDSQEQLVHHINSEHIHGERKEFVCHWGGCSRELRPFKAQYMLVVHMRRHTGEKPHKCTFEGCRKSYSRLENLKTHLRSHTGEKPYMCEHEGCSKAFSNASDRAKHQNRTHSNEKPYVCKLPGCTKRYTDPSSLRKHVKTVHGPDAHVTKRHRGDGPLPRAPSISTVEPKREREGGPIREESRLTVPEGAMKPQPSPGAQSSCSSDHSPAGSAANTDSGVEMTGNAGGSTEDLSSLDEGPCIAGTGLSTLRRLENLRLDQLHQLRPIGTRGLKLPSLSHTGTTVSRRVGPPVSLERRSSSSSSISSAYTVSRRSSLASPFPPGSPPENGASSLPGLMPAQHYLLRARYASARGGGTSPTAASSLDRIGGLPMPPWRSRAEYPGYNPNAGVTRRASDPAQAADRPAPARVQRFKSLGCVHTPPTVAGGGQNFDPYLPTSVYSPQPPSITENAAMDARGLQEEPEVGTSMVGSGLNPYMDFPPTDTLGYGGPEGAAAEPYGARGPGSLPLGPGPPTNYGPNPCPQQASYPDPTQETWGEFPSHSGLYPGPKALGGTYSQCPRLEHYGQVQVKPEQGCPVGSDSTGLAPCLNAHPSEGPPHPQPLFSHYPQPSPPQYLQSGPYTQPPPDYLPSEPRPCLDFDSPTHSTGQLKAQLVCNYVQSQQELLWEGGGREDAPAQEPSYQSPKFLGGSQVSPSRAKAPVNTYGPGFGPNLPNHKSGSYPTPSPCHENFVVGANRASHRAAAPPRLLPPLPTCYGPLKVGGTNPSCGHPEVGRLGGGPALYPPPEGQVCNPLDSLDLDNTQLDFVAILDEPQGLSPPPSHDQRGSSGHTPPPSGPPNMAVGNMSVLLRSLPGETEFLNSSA
Put plainly: Inhibition of GLI1-mediated transcriptional activity in human HaCaT cells by luciferase based reporter gene assay. (In a reporter assay the amount or activity of a reporter protein is the signal.)

Where only a bound is given, the exact number is not on record here.

From BindingDB's records for doi:10.1016/j.bmc.2008.09.053 (Chiba University, 2008) come the findings set out here.

For orientation: IC50 means the point on the concentration scale where inhibition reaches its midpoint. `C=C(C)[C@@H]1CC[C@]2(C(=O)O)CC[C@]3(C)[C@H](CC[C@@H]4[C@@]5(C)[C@@H](C(=O)O)[C@H](O)C(C)(C)[C@@H]5CC[C@]43C)[C@@H]12` displayed an IC50 of over 200 µM. `C=C(C)[C@@H]1CC[C@]2(C(=O)O)CC[C@]3(C)[C@H](CC[C@@H]4[C@@]5(C)[C@H](CO)[C@@H](O)C(C)(C)[C@@H]5CC[C@]43C)[C@@H]12` [ceanothanolic acid]: the IC50 was 133 µM.
